The values below come from patent US20260109731A1, “NE[…] USE THEREOF” (HUNAN MINGRUI PHARMACEUTICAL CO., LTD., priority 2023, published 2026).

This data set can be described thus: Pharmacokinetic analysis of tail vein administration in mice. The note with it: female, ICR, mouse, 5 mg/kg; for concentration at 5 min / concentration at 1 h / concentration at 8 h: brain; for clearance / half-life: plasma, iv. The procedure:
Female ICR mice (body weight: 20 g to 22 g) were purchased from BEIJING HFK BIOSCIENCE CO., LTD.
The animals were sacrificed at blood collection time points (5 min, 1 h and 8 h) for brain tissue collection, and the collected brain tissues were stored at −80° C. for later testing.
100 μL of plasma sample, 10 μL of internal standard solution (100 ng/mL testosterone D-3 solution), and 310 μL of acetonitrile were accurately measured, uniformly mixed by vortexing, and centrifuged (14000 rpm, 4° C.), and a resulting supernatant was taken to obtain the plasma sample.
About 100 mg of brain tissue sample was taken, and accurately weighed, 100 μL of water and 400 μL acetonitrile were accurately added thereto, and a resulting mixture was subjected to homogenization. 100 μL of brain tissue homogenate, 10 μL of internal standard solution (100 ng/mL testosterone D-3 solution), and 310 μL of acetonitrile were accurately measured, uniformly mixed by vortexing, and centrifuged (14000 rpm, 4° C.), and a resulting supernatant was taken to obtain the brain tissue sample.
100 μL of blank plasma sample, 10 μL of mixed standard solution, 10 μL of internal standard solution (100 ng/mL testosterone D-3 solution), and 300 μL of acetonitrile were accurately measured, uniformly mixed by vortexing, and centrifuged (14000 rpm, 4° C.), and a resulting supernatant was taken to obtain the plasma matrix standard solution.
About 100 mg of blank brain tissue sample was taken, and accurately weighed, 100 μL of water and 400 μL acetonitrile were accurately added thereto, and a resulting mixture was subjected to homogenization using a homogenizer. 100 μL of brain tissue homogenate, 10 μL of mixed standard solution, 10 μL of internal standard solution (100 ng/mL testosterone D-3 solution) and 300 μL of acetonitrile were accurately measured, uniformly mixed by vortexing, and centrifuged (14000 rpm, 4° C.), and a resulting supernatant was taken to obtain the Brain tissue matrix standard solution.
The UPLC-MS/MS method with testosterone D-3 as the internal standard was used to perform analysis and determination by the standard curve method.

Molecules are shown by their SMILES.

The Kp is the ratio of the level in a tissue or fluid to that in plasma or blood. One may read the clearance as the volume of plasma or blood freed of the substance per unit of time. A higher clearance goes with efficient removal. The half-life is the time needed for the level to fall by half in the phase considered. A higher half-life goes with slow loss. As for `CC(=O)[C@H]1CC[C@H]2[C@@H]3CC[C@H]4C[C@H](O)CC[C@]4(C)[C@H]3CC[C@]12C` [Allopregnanolone, 5α-pregnan-3α-ol-20-one, reference compound], the clearance is 218 mL/min/kg and the half-life was 40.8 min. Also, under “intravenous”, the concentration at 5 min turned out to be 1070 ng/g, the concentration at 1 h amounted to 47.3 ng/g and the concentration at 8 h stood at 14.4 ng/g. Under “brain/plasma, intravenous”, this molecule had a Kp at 5 min of 1.28 and a Kp at 1 h of 2.71.
Molecule `CC(=O)[C@H]1CC[C@H]2[C@@H]3CC[C@H]4C[C@H](O[N+](=O)[O-])CC[C@]4(C)[C@H]3CC[C@]12C` [Compound 1] had a clearance of 197 mL/min/kg and a half-life of 50.4 min. Besides, for the setting “intravenous”, the concentration at 5 min came to 1140 ng/g, the concentration at 1 h is 652 ng/g and the concentration at 8 h came to 31 ng/g. For the setting “brain/plasma, intravenous”, this molecule gave a Kp at 5 min of 0.65, a Kp at 1 h of 7.58 and a Kp at 8 h of 2.27.
